Experimental data published in patent publication US8247612B2, “Organic sulfur compound and its use for controlling harmful arthropod” (Sumitomo Chemical Company, Limited, priority 2007, dated 2012).

Experiments:
Format in all cases: in vivo
[1] = tested on: Blattalla germanica; assay: Test Example 3: treated filter paper with sucrose bait, death rate of Blattalla germanica; settings: 144 h; 500 ppm test solution, 0.7 ml on filter paper; 2 male imagoes; after 6 days
Description: (§1) Preparations of the present compounds (2), (3), (5), (6), (10), (11), (12), (14), (15), (16), (17), (19), (20), (24), (25), (26), (29), (30) and (31) obtained according to Formulation Example 36 were diluted so that the active ingredient concentration was 500 ppm to obtain test solutions.
(§2) A filter paper having a diameter of 5.5 cm was spread on the bottom of a polyethylene cup having a diameter of 5.5 cm and 0.7 ml of the test solution was added dropwise onto the filter paper. As a bait 30 mg of sucrose was uniformly placed on the filter paper. Into the polyethylene cup, 2 male imagoes of Blattalla germanica were released and the cup was sealed with a lid. After 6 days, the number of surviving Blattalla germanica was examined and the death rate of the pest was calculated.
As a result, in treatments with the present compounds (2), (3), (5), (6), (10), (11), (12), (14), (15), (16), (17), (19), (20), (24), (25), (26), (29), (30) and (31), the death rate of the pest was 100%.

[2] = tested on: Culex pipiens pallens; assay: Test Example 4: larvae in treated water, death rate of Culex pipiens pallens; settings: 24 h, active ingredient concentration 3.5 ppm in water, 20 last-instar larvae, after one day
Description: Preparations of the present compounds (1), (2), (3), (4), (5), (6), (9), (10), (11), (12), (14), (15), (16), (17), (19), (20), (22), (23), (24), (26), (27), (28), (29), (30) and (31) obtained according to Formulation Example 36 were diluted so that the active ingredient concentration was 500 ppm to obtain test solutions. To 100 mL of ion-exchanged water, 0.7 ml of the test solution was added (active ingredient concentration: 3.5 ppm). Into the solution, 20 last-instar larvae of Culex pipiens pallens were released. After one day, the number of surviving Culex pipiens pallens was examined and the death rate of the pest was calculated. As a result, in treatments with the present compounds (1), (2), (3), (4), (5), (6), (9), (10), (11), (12), (14), (15), (16), (17), (19), (20), (22), (23), (24), (26), (27), (28), (29), (30) and (31), the death rate of the pest was 90% or more.

[3] = tested on: Musca domestica; assay: Test Example 2: treated filter paper with sucrose bait, death rate of Musca domestica; settings: 500 ppm test solution, 0.7 ml on filter paper, 10 female imagoes, after 24 hours
Description: as §1, with “(6), (9),” for “(6),”, “(12), (13),” for “(12),”, “(26), (28),” for “(26),”
as §2, with “10 female” for “2 male”, “Musca domestica” for “Blattalla germanica”, “24 hours,” for “6 days,”
As a result, in treatments with the present compounds (2), (3), (5), (6), (9), (10), (11), (12), (13), (14), (15), (16), (17), (19), (20), (24), (25), (26), (28), (29), (30) and (31), the death rate of the pest was 70% or more.

[4] = tested on: Haemaphysalis longicornis; assay: Test Example 5: treated filter paper pouch, death rate of ticks; settings: filter paper treated with 100 mg/m^2; non-blood-sucking nymphal ticks, 10 ticks/group; after 2 days
Description: Five milligrams of any one of the present compounds (3), (10), (14), (15), (16) and (17) was dissolved in 10 mL of acetone. One milliliter of the acetone solution was uniformly applied on one side of a filter paper (TOYO No. 2; 5×10 cm), so that the filter paper was treated with 100 mg/m^2 of the present compound. After drying, the filter paper was folded in two and its edges were clipped to make a pouch. Non-blood-sucking nymphal ticks (Haemaphysalis longicornis, 10 ticks/group) were put into the pouch, and the pouch was sealed with clips. After 2 days, the number of surviving ticks was examined and the death rate was calculated. As a result, in treatments with the present compounds (3), (10), (14), (15), (16) and (17), the death rate of the tick was 90%.

SMILES	pest or weed control at 500 ppm [1] [%]	pest or weed control at 3.5 ppm [2] [%]	pest or weed control at 500 ppm [3] [%]	death rate of the tick [4] [%]
CC(CCC(C#N)S(=O)(=O)CCC(F)(F)F)C(F)(F)F (centres unmarked) [present compound (10), 6,6,6-trifluoro-5-methyl-2-(3,3,3-trifluoropropylsulfonyl)hexanenitrile]	100	≥ 90	≥ 70	90
CCC(CCC(C#N)S(=O)(=O)CCC(F)(F)F)C(F)(F)F (centres unmarked) [present compound (14), 5-(trifluoromethyl)-2-(3,3,3-trifluoropropylsulfonyl)heptanenitrile]	100	≥ 90	≥ 70	90
CCC(CCC(F)(C#N)S(=O)(=O)CCC(F)(F)F)C(F)(F)F (centres unmarked) [present compound (15), 2-fluoro-5-(trifluoromethyl)-2-(3,3,3-trifluoropropylsulfonyl)heptanenitrile]	100	≥ 90	≥ 70	90
CCC(CCC(Cl)(C#N)S(=O)(=O)CCC(F)(F)F)C(F)(F)F (centres unmarked) [present compound (16), 2-chloro-5-(trifluoromethyl)-2-(3,3,3-trifluoropropylsulfonyl)heptanenitrile]	100	≥ 90	≥ 70	90
CCC(CCC(C)(C#N)S(=O)(=O)CCC(F)(F)F)C(F)(F)F (centres unmarked) [present compound (17), 2-methyl-5-(trifluoromethyl)-2-(3,3,3-trifluoropropylsulfonyl)heptanenitrile]	100	≥ 90	≥ 70	90
